Results reported in patent US5480906A, “Stereochemical Wortmannin derivatives” (priority 1994, dated 1996).

system: purified bovine brain PI 3-kinase; test: Assay of purified PI-3 kinase activity (32P incorporation into phosphatidylinositol, TLC/scintillation); type: biochemical; conditions: at 10 ng/ml
Experimental: In another, preferred, method, PI 3-kinase was prepared from bovine brain. Two bovine brains (wet weight about 900 g) were obtained from a local slaughterhouse within minutes of slaughter, packed on ice, and homogenized within one hour. Brains were trimmed of excess fat and blood vessels and then homogenized using a Tekmar Tissuemizer (Cincinnati, Ohio) at 4° C. in 20 mM of Tris(pH 8.3) containing 250 mM of sucrose, 6 mM of β-mercaptoethanol, 1 μg/ml of leupeptin, 1 μg/ml of pepstatin A, 0.4 mM of PMSF, and 1 mM of MgCl2.
Following centrifugation for 60 minutes at 10,000 x g, the pH of the supernatant (about 1200 mL) was lowered to 5.75 using dropwise addition of 1M acetic acid at 4° C. After stirring for an additional 15 minutes at 4° C., the solution was centrifuged for 60 minutes at 13,500 x g. The supernatant was discarded. Pellets were resuspended in Buffer A (20 mM of Tris, pH 8.3, containing 6 mM of β-mercaptoethanol, 0.1 mM of ethylene glycol-bis(β-aminoethyl ether) N,N,N',N'-tetraacetic acid (EGTA), 1 μg/mL of leupeptin, 1 μg/mL of pepstatin A, and 1 mM of MgCl2), and loaded onto a Fast Flow Q Sepharose column (300 ml) at a flow rate of 5 mL/min at 4° C. After loading, the column was washed with 3 volumes of Buffer A containing 0.1M of KCl and the kinase was then eluted with a linear gradient of Buffer A/0.1M KCl to Buffer A/0.6M KCl at 3 mL/min over 7 volumes.
Fractions were assayed for PI 3-kinase activity using 10 μL of the fraction and phosphatidylinositol as substrate as described below. PI 4-kinase eluted in the breakthrough; PI 3-kinase eluted at approximately 0.3M of KCl. The PI 3-kinase pool was subjected to a 40% ammonium sulfate precipitation. Following centrifugation (60 minutes at 13,500 x g), pellets were resuspended in Buffer B (10 mM of potassium phosphate, pH 7.4, containing 6 mM of β-mercaptoethanol, 1 μg/mL of leupeptin, 1 μg/mL of pepstatin A, and 1 mM of MgCl2), and loaded onto a 50 mL hydroxylapatite column (Calbiochem, Inc., La Jolla, Calif.) at 2.5 mL/minute. The column was washed with 150 mL Buffer B until the A280 baseline reached zero, and the kinase was then eluted with a linear gradient of 10-320 mM of KH2 PO4 at 1 mL/minute over 450 minutes.
Active fractions were pooled and then loaded at 3 mL/minute onto a MonoS column (8 ml) (Pharmacia, Inc., Piscataway, N.J.) equilibrated in Buffer C (50 mM of MES, pH 6.2, containing 6 mM of β-mercaptoethanol, 0.1 mM of EGTA, 1 μg/mL of leupeptin, 1 μg/mL of pepstatin A, and 1 mM of MgCl2). PI 3-kinase was eluted with a linear gradient of 0-0.4M KCl in Buffer C over 120 minutes. In assaying fractions, two pools of PI 3-kinase activity were routinely found. The bulk of the activity was found in the flow-through, while about 20% of the activity was eluted in the gradient. Although the material in the gradient had considerable PI 4-kinase activity, essentially no PI 4-kinase activity was associated with the PI 3-kinase eluted in the flow-through. Therefore, the MonoS flow-through was concentrated by tangential flow filtration on a Mini-Ultrasette Omega 50 K membrane (Filtron, Inc., Northborough, Mass.) and diluted in Buffer C to lower the conductivity. The material was then reloaded onto the MonoS column using the above conditions. The PI 3-kinase bound to the column during the wash and was eluted in the gradient. Two pools of phosphatidylinositol kinase activity were obtained in the gradient; each was assayed for PI 3-kinase and PI 4-kinase activity.
Pool I from the MonoS column was diluted with Buffer A and chromatographed on MonoQ (1 ml) and eluted with a gradient of 0-0.4M KCl in Buffer A. The final pool was assayed for PI 3-kinase and PI 4-kinase activity.
PI 3-kinase activity was measured as previously described by Matter, W. F., et al., Biochemical and Biophysical Research Communications, 186: 624-631 (1992). […]

For `COC[C@H]1OC(=O)c2coc3c2[C@@]1(C)C1=C(C3=O)[C@@H]2CCC(=O)[C@@]2(C)C[C@H]1O` [f, 11-desacetyl wortmannin], the “inhibition vs. PI-3-kinase” value was 50%.

same assay, conditions: purified bovine brain PI 3-kinase, 10 min preincubation, 20 μM ATP, 3% DMSO

Going from `COC[C@H]1OC(=O)c2coc3c2[C@@]1(C)C1=C(C3=O)[C@@H]2CCC(=O)[C@@]2(C)C[C@H]1OC(=O)CC(C)C` [iA, 11-isovaleryl-desacetyl-Wortmannin] to `CCC(=O)O[C@@H]1C[C@]2(C)C(=O)CC[C@H]2C2=C1[C@]1(C)c3c(coc3C2=O)C(=O)O[C@@H]1COC` [g, 11-propionyl-desacetyl-Wortmannin], the “IC50 for inhibition of PI-3-kinase” value falls from 1.16 ng/mL to 0.6 ng/mL (1.9-fold).

Going from `CCC(=O)O[C@@H]1C[C@]2(C)[C@@H](O)CC[C@H]2C2=C1[C@]1(C)c3c(coc3C2=O)C(=O)O[C@@H]1COC` [e, 11-propionyl-17-hydroxy-desacetyl-dihydro-Wortmannin] to `CCC(=O)O[C@@H]1C[C@]2(C)[C@@H](OC(C)=O)CC[C@H]2C2=C1[C@]1(C)c3c(coc3C2=O)C(=O)O[C@@H]1COC` [j, 11-propionyl-17-acetyl-desacetyl-dihydro-Wortmannin], the “IC50 for inhibition of PI-3-kinase” value rises from 0.38 ng/mL to 56.5 ng/mL (150-fold).

Going from `COC[C@H]1OC(=O)c2coc3c2[C@@]1(C)C1=C(C3=O)[C@@H]2CCC(=O)[C@@]2(C)C[C@H]1OC(=O)CCl` [l, 11-chloroacetyldesacetyl-Wortmannin] to `CCCC(=O)O[C@@H]1C[C@]2(C)C(=O)CC[C@H]2C2=C1[C@]1(C)c3c(coc3C2=O)C(=O)O[C@@H]1COC` [h, 11-butyryl-desacetyl-Wortmannin], the “IC50 for inhibition of PI-3-kinase” value falls from 1.3 ng/mL to 0.4 ng/mL (3.2-fold).

`COC[C@H]1OC(=O)c2coc3c2[C@@]1(C)C1=C(C3=O)[C@@H]2CCC(=O)[C@@]2(C)C[C@H]1OC(=O)Cc1ccccc1` [n, 11-phenylacetyl-desacetyl-Wortmannin] and `CCCCC(=O)O[C@@H]1C[C@]2(C)C(=O)CC[C@H]2C2=C1[C@]1(C)c3c(coc3C2=O)C(=O)O[C@@H]1COC` [i, 11-valeryl-desacetyl-Wortmannin] are within 1.5-fold of each other in “IC50 for inhibition of PI-3-kinase” value: 1.53 ng/mL for the first, 1.2 ng/mL for the second.

Going from `COC[C@H]1OC(=O)c2coc3c2[C@@]1(C)C1=C(C3=O)[C@@H]2CCC(=O)[C@@]2(C)CC1=O` [c, 11-dehydro Wortmannin] to `COC[C@H]1OC(=O)c2coc3c2[C@@]1(C)C1=C(C3=O)[C@@H]2CCC(=O)[C@@]2(C)C[C@H]1O` [f, 11-desacetyl wortmannin], the “IC50 for inhibition of PI-3-kinase” value rises from 1.6 ng/mL to 10 ng/mL (6.2-fold).

First: COC[C@H]1OC(=O)c2coc3c2[C@@]1(C)C1=C(C3=O)[C@@H]2CCC(=O)[C@@]2(C)C[C@H]1OC(=O)CCN(C)C [k, 11-dimethylaminopropionyl-desacetyl-Wortmannin]
Second: C=CC(=O)O[C@@H]1C[C@]2(C)C(=O)CC[C@H]2C2=C1[C@]1(C)c3c(coc3C2=O)C(=O)O[C@@H]1COC [m, 11-acrylyl-desacetyl-wortmannin]
The “IC50 for inhibition of PI-3-kinase” value of the first is 9.1-fold higher: 8.6 ng/mL for the first, 0.95 ng/mL for the second.

With `COC[C@H]1OC(=O)c2coc3c2[C@@]1(C)C1=C(C3=O)[C@@H]2CCC(O)[C@@]2(C)C[C@H]1O` (stereo partly shown) [d, 11,17-desacetyl-dihydro Wortmannin] the “IC50 for inhibition of PI-3-kinase” value was greater than 10 ng/mL.
With `CCN(C=C1C(=O)O[C@H](COC)[C@@]2(C)C1=C(O)C(=O)C1=C2[C@H](O)C[C@]2(C)C(=O)CC[C@@H]12)CC` [b] the “IC50 for inhibition of PI-3-kinase” value was greater than 10 ng/mL.

system: laboratory animals; test: not given; conditions: even in low dosages, pure form; cited from earlier work

For `COC[C@H]1OC(=O)c2coc3c2[C@@]1(C)C1=C(C3=O)[C@@H]2CCC(=O)[C@@]2(C)C[C@H]1OC(C)=O` [wortmannin, Wortmannin], the “toxicity to living creatures (lethality)” value is given as “often lethal”.
